# Results: the supplement of paper PMC13380429
# How the values were obtained:
# Conditions in all cases: 72 h
# [1] = tested on: U2OS; assay: relative viability EC50 (midpoint between 100% and the lowest measured viability); higher = less toxic
# [2] = tested on: Vero E6; assay: as above
# [3] = tested on: Caco-2; assay: as above
# [4] = tested on: HepG2; assay: as above
# [5] = tested on: Calu-3; assay: as above
# [6] = tested on: U2OS; assay: drug sensitivity score (DSS) for viability; higher = more toxic; extreme values may be limits of the assay
# [7] = tested on: Vero E6; assay: as above
# [8] = tested on: Caco-2; assay: as above
# [9] = tested on: HepG2; assay: as above
# [10] = tested on: Calu-3; assay: as above
# [11] = tested on: U2OS; assay: cell viability relative to DMSO; higher = less toxic
# [12] = tested on: Vero E6; assay: as above
# [13] = tested on: Caco-2; assay: as above
# [14] = tested on: HepG2; assay: as above
# [15] = tested on: Calu-3; assay: as above
Compound,relative viability EC50 [1] [µM],relative viability EC50 [2] [µM],relative viability EC50 [3] [µM],relative viability EC50 [4] [µM],relative viability EC50 [5] [µM],drug sensitivity score [6],drug sensitivity score [7],drug sensitivity score [8],drug sensitivity score [9],drug sensitivity score [10],cell viability ([11]; 1 nM) [%],cell viability ([11]; 10 nM) [%],cell viability ([11]; 100 nM) [%],cell viability ([11]; 1000 nM) [%],cell viability ([11]; 10000 nM) [%],cell viability ([12]; 1 nM) [%],cell viability ([12]; 10 nM) [%],cell viability ([12]; 100 nM) [%],cell viability ([12]; 1000 nM) [%],cell viability ([12]; 10000 nM) [%],cell viability ([13]; 1 nM) [%],cell viability ([13]; 10 nM) [%],cell viability ([13]; 100 nM) [%],cell viability ([13]; 1000 nM) [%],cell viability ([13]; 10000 nM) [%],cell viability ([14]; 1 nM) [%],cell viability ([14]; 10 nM) [%],cell viability ([14]; 100 nM) [%],cell viability ([14]; 1000 nM) [%],cell viability ([14]; 10000 nM) [%],cell viability ([15]; 1 nM) [%],cell viability ([15]; 10 nM) [%],cell viability ([15]; 100 nM) [%],cell viability ([15]; 1000 nM) [%],cell viability ([15]; 10000 nM) [%]
Nc1ncnc2c1ncn2[C@@H]1O[C@H](COP(=O)(O)OP(=O)(O)OP(=O)(O)OP(=O)(O)OC[C@H]2O[C@@H](n3cnc4c(N)ncnc43)[C@H](O)[C@@H]2O)[C@@H](O)[C@H]1O [diadenosine-tetraphosphate],> 10,> 10,> 10,> 10,> 10,0,0,0,0,0.1,94.5,98.1,97.7,97.5,107,99,102,96.5,102,97,99.4,97.8,99.3,102,107,94.6,101,114,102,104,106,104,94.9,89.6,92.4
Cc1ccccc1N1CCN(CCc2nnc3n2CCCC3)CC1 [dapiprazole],> 10,> 10,> 10,> 10,> 10,0,0,0,0,0,99.2,105,96.2,106,102,92.9,93.2,97.6,98.9,92.8,106,99.9,86.9,98,92.5,99.8,104,92.9,94.3,102,106,102,92.9,102,101
CC(C)CCNC(=O)[C@H](CC(C)C)NC(=O)[C@H]1O[C@@H]1C(=O)O [loxistatin-acid],> 10,> 10,> 10,> 10,> 10,0,0,0,0,0,99.4,98.7,101,101,105,103,107,99.4,102,101,103,95.6,93.1,99,100,93.4,98.3,104,103,104,101,95.8,101,91.5,105
Nc1ccccc1NC(=O)c1ccc(CNc2nccc(-c3cccnc3)n2)cc1 [mocetinostat],1.26,0.567,1.12,0.756,0.405,10.4,13.9,9.2,12.5,13,98.4,97.2,100,64.2,0.3,95.4,94.7,78,43.4,-0.1,95.6,100,102,64.4,17.7,102,100,88.9,44.2,1.1,102,89.6,86.8,40,17.7
CC(C)NCC(O)c1ccc([N+](=O)[O-])cc1 (stereo not given) [nifenalol],> 10,> 10,> 10,> 10,> 10,0,0,0,0,0,93.8,100,102,99.2,99.7,107,106,102,93.3,89.6,87.2,99.9,92.7,85.1,94,98.3,101,103,108,106,101,96.8,103,98.4,108
CSCC[C@H](NC(=O)[C@H](CC(C)C)NC(=O)[C@@H](Cc1c[nH]c2ccccc12)NC(=O)[C@H](Cc1ccccc1)N(C)C(=O)[C@@H](Cc1c[nH]c2ccccc12)NC(=O)[C@@H](N)CCCNC(=N)N)C(N)=O [antagonist-g],> 10,> 10,> 10,> 10,> 10,0,0,0,0,0,99.9,93.1,97.7,97,97.4,96.2,97,102,85.6,96.3,93.8,89.7,96.3,75.6,122,104,98.1,103,84.8,105,105,91,98.8,89.3,111
COc1ccccc1N1CCN(CCCNc2cc(=O)n(C)c(=O)n2C)CC1 [urapidil],> 10,> 10,> 10,> 10,> 10,0,0,0,0,0,91.1,97.5,95.2,101,103,100,100,98.8,98.6,102,92.1,96.4,97.9,101,104,105,90.1,107,95.8,95,96.7,98.5,96.4,102,107
[N-]=[N+]=CC(=O)CC[C@H](N)C(=O)O [6-diazo-5-oxo-L-norleucine],> 10,> 10,> 10,> 10,> 10,0,0,0,0,0,104,102,104,98.3,104,94.2,95.8,86.8,95.6,103,95.4,90,97.8,95.8,92.7,97,105,98.8,97.2,112,102,90.6,96.4,95.2,98.1
CC(C)(C)NCC(O)COc1cc(Cl)ccc1Cl (stereo not given) [cloranolol],> 10,> 10,> 10,> 10,> 10,0,0,0,0,0,102,94.8,103,97.1,106,106,98.8,100,95.5,90,85.6,89.4,106,112,88.8,90.7,96.2,94.6,94.8,88.7,95,88.1,76.5,89.9,92.3
COc1ccc(NS(=O)(=O)c2ccc(I)cc2)cc1N1CCN(C)CC1,> 10,> 10,> 10,> 10,> 10,0,0,0,0.4,0,101,97.7,102,99.8,98.2,103,107,102,100,92.2,109,98,102,98.5,93.3,108,104,100,99.9,82.6,95.6,94.7,102,93.3,101
CC(O)(P(=O)(O)O)P(=O)(O)O [etidronic-acid],> 10,> 10,> 10,> 10,> 10,0,0,0,0,0,102,97,98.6,103,102,92.7,91.1,96.1,90.1,95.8,103,91.5,103,98.2,104,92.3,105,105,100,94.6,93.2,103,109,92.1,105
NCCC(=O)N[C@@H](Cc1c[nH]cn1)C(=O)O [carnosine],3.07,2.74,2.08,3.22,3.08,4.1,5.2,6.6,4.8,2.8,96,97.2,92.3,99.1,28.7,94.3,95.3,95,95.5,17.9,99.5,97.8,92.3,88.6,15.4,111,101,97,101,12,95,93.4,104,99.4,48.6
CC(C)[C@@]1(NC(=O)[C@@H]2C[C@@H]3c4cccc5[nH]cc(c45)C[C@H]3N(C)C2)O[C@@]2(O)[C@@H]3CCCN3C(=O)[C@H](Cc3ccccc3)N2C1=O [dihydroergocristine],> 10,> 10,> 10,> 10,> 10,0,0,0,0.1,0,96.3,100,99.2,98.2,96.4,102,100,102,99,99.5,105,100,89.3,102,91.7,103,95.1,95.8,100,86.4,92.6,97.5,99,93.3,94.9
O=C(Nc1cc(C(F)(F)F)cc(C(F)(F)F)c1)c1cnc(Cl)nc1C(F)(F)F,> 10,> 10,> 10,> 10,> 10,0,0,0,0,0,100,100,102,99.9,94.9,96,97.5,97.1,97.2,102,102,94.3,102,103,97.7,90.4,96.7,99.8,97,92.6,98.3,109,101,104,99.2
CC[C@]1(O)C[C@@H]2CN(CCc3c([nH]c4ccccc34)[C@@](C(=O)OC)(c3cc4c(cc3OC)N(C)[C@H]3[C@@](O)(C(N)=O)[C@H](O)[C@]5(CC)C=CCN6CC[C@]43[C@@H]65)C2)C1 [vindesine],0.018,0.219,0.0121,0.0085,0.0122,25.7,14.3,20.6,23.5,17.8,98.7,73.5,31.6,26.4,22.3,96.4,95.3,83.3,33.6,27.3,93.8,72.7,48.5,41.2,40.3,92.9,64.8,43.2,35.8,37.2,93.8,70.6,61.4,47,45.9
Cc1ccccc1NC(=N)Nc1ccccc1C [ditolylguanidine],> 10,> 10,> 10,> 10,> 10,0,0,0.2,0,0,98.8,104,94.6,102,94.7,96.4,104,95.6,100,95.6,96.5,100,103,95.6,88.3,100,96.1,97.7,94.3,97.9,103,104,95.8,103,90.4
Cc1ccc(C[N+](C)(C)C)o1 [5-methylfurmethiodide],> 10,> 10,> 10,> 10,> 10,0,0,0,0,0,101,99.7,102,98.7,103,104,103,97.5,107,99.9,99.1,105,103,96.3,108,104,108,93.8,103,90.2,108,103,93.9,100,101
Nc1nc(N)nc(NC2CC2)n1 [cyromazine],> 10,> 10,> 10,> 10,> 10,0,0,0,0,0,94.9,93.4,97.8,96.7,103,92.8,98.2,93,99.1,109,99.6,99.8,108,95.3,96.1,96.3,105,99.8,95,104,105,92.6,95.7,84.6,103
O=C(Nc1ccccc1C(=O)NC1CCCCNC1=O)c1cc2ccccc2s1 (stereo not given) [ANA-12],> 10,> 10,> 10,> 10,> 10,0,0,0,0,0.3,97.8,101,91.5,104,96.7,100,99.3,99.8,89.5,104,90.9,97.4,96.1,106,96.4,104,93.1,100,91.4,98.4,99.6,95.3,101,94.7,87.7
Cn1nc(-c2ccc(C(F)(F)F)cc2)nc2c(=O)n(C)c(=O)nc1-2 [walrycin-B],3.02,3.26,1.15,0.88,2.87,5.7,3.5,10.2,11.6,3,105,107,100,98,1.8,102,100,102,101,34.4,96.6,99.2,99.3,61.8,7.5,108,101,84.7,51.3,1.6,109,108,108,98,48.5
CC(C)=CCC[C@]1(C)C=Cc2c(O)c3c(c(CC=C(C)C)c2O1)O[C@]12C(=C[C@@H]4C[C@H]1C(C)(C)O[C@@]2(C/C=C(/C)C(=O)O)C4=O)C3=O [gambogic-acid],0.269,0.4,0.288,0.51,0.404,18.8,16.7,18.5,15.4,16.6,98.8,102,94,-0.1,-0.3,105,104,106,6,-0.3,90.7,102,94.9,1.9,-0.1,97.6,93.6,99.3,15.6,-0.4,100,138,111,4.7,-0.3
